Experimental data as given in PubChem BioAssay (NCI).
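Where inhibition never reached the appropriate level, the endpoint shown equals the highest concentration tested. Otherwise, values were interpolated linearly from a five-concentration, 48-hour dose response in 96-well plates. TGI: total growth inhibition.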

Assays:
Assay in all cases: DTP human tumour cell line panel, 48 h
A549 NSCLC = tested on: A549 NSCLC
CCRF-CEM leukemia = tested on: CCRF-CEM leukemia
HOP-92 NSCLC = tested on: HOP-92 NSCLC
MDA-MB-435 = tested on: MDA-MB-435
NCI-H226 lung = tested on: NCI-H226 lung
OVCAR-5 ovarian = tested on: OVCAR-5 ovarian
OVCAR-8 ovarian = tested on: OVCAR-8 ovarian
SW-620 colon = tested on: SW-620 colon
UACC-257 melanoma = tested on: UACC-257 melanoma

Structure (SMILES): CC(C)(CO[C@H]1C[C@H]2CC[C@@]1(C)C2(C)C)[N+](=O)[O-]
- TGI (A549 NSCLC): > 100 µM
- TGI (CCRF-CEM leukemia): > 100 µM
- TGI (HOP-92 NSCLC): 43.4 µM
- TGI (MDA-MB-435): 34 µM
- TGI (NCI-H226 lung): 36.1 µM
- TGI (OVCAR-5 ovarian): 33.9 µM
- TGI (OVCAR-8 ovarian): 56.8 µM
- TGI (SW-620 colon): 59.8 µM
- TGI (UACC-257 melanoma): 36.9 µM

Structure (SMILES): COC(=O)C1=C(CCCCO[Si](C)(C)C(C)(C)C)NC(=O)N2[C@H](CCOCc3ccccc3)CC[C@@H]12
- TGI (A549 NSCLC): > 100 µM
- TGI (HOP-92 NSCLC): > 100 µM
- TGI (MDA-MB-435): > 100 µM
- TGI (NCI-H226 lung): > 100 µM
- TGI (OVCAR-5 ovarian): > 100 µM
- TGI (UACC-257 melanoma): > 100 µM

Structure (SMILES): Nc1[nH]c(=O)nc2c1ncn2C1OC(CO)C(O)C1O (stereo not drawn)
- TGI (A549 NSCLC): > 100 µM
- TGI (CCRF-CEM leukemia): 75.3 µM
- TGI (HOP-92 NSCLC): > 100 µM
- TGI (MDA-MB-435): > 100 µM
- TGI (NCI-H226 lung): > 100 µM
- TGI (OVCAR-5 ovarian): > 100 µM
- TGI (OVCAR-8 ovarian): 74.4 µM
- TGI (SW-620 colon): > 100 µM
- TGI (UACC-257 melanoma): > 100 µM

Structure (SMILES): CCCCCC[C@H]([C@H](C)O)n1cnc2c(N)ncnc21
- TGI (A549 NSCLC): > 100 µM
- TGI (CCRF-CEM leukemia): > 100 µM
- TGI (HOP-92 NSCLC): > 100 µM
- TGI (MDA-MB-435): > 100 µM
- TGI (NCI-H226 lung): > 100 µM
- TGI (OVCAR-5 ovarian): > 100 µM
- TGI (OVCAR-8 ovarian): > 100 µM
- TGI (SW-620 colon): > 100 µM
- TGI (UACC-257 melanoma): > 100 µM

Structure (SMILES): Cc1c(C)c2c(c(N)c1C#N)C(=O)N(N)C2=O
- TGI (A549 NSCLC): > 100 µM
- TGI (CCRF-CEM leukemia): > 100 µM
- TGI (HOP-92 NSCLC): > 100 µM
- TGI (MDA-MB-435): > 100 µM
- TGI (NCI-H226 lung): > 100 µM
- TGI (OVCAR-5 ovarian): > 100 µM
- TGI (OVCAR-8 ovarian): > 100 µM
- TGI (SW-620 colon): > 100 µM
- TGI (UACC-257 melanoma): > 100 µM

Structure (SMILES): C/C(=N\Nc1nc2ccccc2s1)c1ccncn1
- TGI (A549 NSCLC): > 35 µM
- TGI (CCRF-CEM leukemia): > 100 µM
- TGI (HOP-92 NSCLC): > 30.1 µM
- TGI (MDA-MB-435): > 100 µM
- TGI (NCI-H226 lung): 1.07 µM
- TGI (OVCAR-5 ovarian): > 100 µM
- TGI (OVCAR-8 ovarian): 1.03 µM
- TGI (SW-620 colon): > 100 µM
- TGI (UACC-257 melanoma): > 100 µM

Structure (SMILES): Cc1ccccc1NC(=O)O/N=C(\Cl)C(C)C
- TGI (A549 NSCLC): 36.8 µM
- TGI (CCRF-CEM leukemia): > 21.7 µM
- TGI (HOP-92 NSCLC): 4.08 µM
- TGI (MDA-MB-435): 30.1 µM
- TGI (NCI-H226 lung): 30.7 µM
- TGI (OVCAR-5 ovarian): 40.5 µM
- TGI (OVCAR-8 ovarian): 33.8 µM
- TGI (SW-620 colon): 4.36 µM
- TGI (UACC-257 melanoma): 28.7 µM

Structure (SMILES): COc1cc2c(cc1O)C1Cc3ccc(OC)c(O)c3C[N+]1(C)CC2 (stereo not drawn)
- TGI (A549 NSCLC): > 100 µM
- TGI (CCRF-CEM leukemia): > 100 µM
- TGI (HOP-92 NSCLC): > 100 µM
- TGI (MDA-MB-435): > 100 µM
- TGI (NCI-H226 lung): > 100 µM
- TGI (OVCAR-5 ovarian): > 100 µM
- TGI (OVCAR-8 ovarian): > 100 µM
- TGI (SW-620 colon): > 100 µM

Structure (SMILES): COc1cc2c(/C=C3/C(=O)Nc4ccccc43)c(Cl)n(Cc3ccc(Cl)cc3)c2cc1C
- TGI (A549 NSCLC): 10.6 µM
- TGI (HOP-92 NSCLC): 39.5 µM
- TGI (MDA-MB-435): 0.428 µM
- TGI (NCI-H226 lung): 1.79 µM
- TGI (OVCAR-5 ovarian): 8.84 µM
- TGI (OVCAR-8 ovarian): 0.989 µM
- TGI (SW-620 colon): 17.5 µM
- TGI (UACC-257 melanoma): 8.43 µM

Structure (SMILES): C=C1c2nc3ccccc3n2C=C(c2ccc(C)cc2)N1c1ccc(OC)cc1
- TGI (A549 NSCLC): > 100 µM
- TGI (CCRF-CEM leukemia): > 100 µM
- TGI (HOP-92 NSCLC): > 100 µM
- TGI (MDA-MB-435): 49.2 µM
- TGI (NCI-H226 lung): > 100 µM
- TGI (OVCAR-5 ovarian): > 100 µM
- TGI (OVCAR-8 ovarian): > 100 µM
- TGI (SW-620 colon): > 100 µM
- TGI (UACC-257 melanoma): > 100 µM

Structure (SMILES): N#CCCC(C=O)(CCC#N)CCC#N
- TGI (A549 NSCLC): > 100 µM
- TGI (CCRF-CEM leukemia): > 100 µM
- TGI (HOP-92 NSCLC): > 100 µM
- TGI (MDA-MB-435): > 100 µM
- TGI (NCI-H226 lung): > 100 µM
- TGI (OVCAR-5 ovarian): > 100 µM
- TGI (OVCAR-8 ovarian): > 100 µM
- TGI (SW-620 colon): > 100 µM
- TGI (UACC-257 melanoma): > 100 µM

Structure (SMILES): O=C(CNc1ccccc1C(=O)O)Nn1cnc2ccc(S(=O)(=O)Nc3ccccc3C(=O)O)cc2c1=O
- TGI (A549 NSCLC): > 100 µM
- TGI (CCRF-CEM leukemia): > 100 µM
- TGI (HOP-92 NSCLC): > 100 µM
- TGI (MDA-MB-435): > 100 µM
- TGI (NCI-H226 lung): > 100 µM
- TGI (OVCAR-5 ovarian): > 100 µM
- TGI (OVCAR-8 ovarian): > 100 µM
- TGI (SW-620 colon): > 100 µM
- TGI (UACC-257 melanoma): > 100 µM
